Reference: patent publication US20110160223A1, “NMDA Receptor Antagonists for the Treatment of Neuropsychiatric Disorders” (priority 2008, published 2011)
Where two headings read alike, the source gives them in different places.

Columns and labels:
[1] = Oral absorption (p.o. pharmacokinetics, Table 25); assay type: in vivo, Rats; conditions: rat, plasma; for bioavailability: read-out: % Absorbed (% F); for AUC(0-t): read-out: AUC (0-last h) p.o.
[2] = Plasma half-life (i.v./i.p. pharmacokinetics, Table 23); assay type: in vivo, Rats; conditions: rat; for AUC(0-t): read-out: AUC (0-last h) i.v. XMPK; for Cmax at 30 min: 30 m
Description: Animals were fasted overnight prior to dose administration and food returned to the animals two hours after dosing. Following IV dosing, blood samples (ca 200 μL) were collected into separate tubes containing anticoagulant (K-EDTA) via the orbital plexus at various times post administration. Plasma samples were prepared immediately after collection by centrifugation for ten minutes using a tabletop centrifuge, and stored at −80° C. Brain tissue was weighed, homogenized on ice in 50 mM phosphate buffer (2 ml per brain) and the homogenate stored at −80° C. Plasma and brain homogenate samples were extracted by the addition of 5 volumes of cold acetonitrile, mixed well by vortexing and centrifuged at 4000 rpm for 15 minutes. The supernatant fractions were analyzed by LC-MS/MS operating in multiple reaction monitoring mode (MRM). The amount of parent compound in each sample was calculated by comparing the response of the analyte in the sample to that of a standard curve.

[3] = target: NMDA receptor (NR1 + NR2 subunits) (Rattus norvegicus, UniProt P35439+Q00960); assay: Two electrode voltage clamp recording from Xenopus laevis oocytes (pH dependence of NMDA antagonism); assay type: cell-based
Chain of NMDA receptor (NR1 + NR2 subunits) (Q00960 27-1482, other chains not shown): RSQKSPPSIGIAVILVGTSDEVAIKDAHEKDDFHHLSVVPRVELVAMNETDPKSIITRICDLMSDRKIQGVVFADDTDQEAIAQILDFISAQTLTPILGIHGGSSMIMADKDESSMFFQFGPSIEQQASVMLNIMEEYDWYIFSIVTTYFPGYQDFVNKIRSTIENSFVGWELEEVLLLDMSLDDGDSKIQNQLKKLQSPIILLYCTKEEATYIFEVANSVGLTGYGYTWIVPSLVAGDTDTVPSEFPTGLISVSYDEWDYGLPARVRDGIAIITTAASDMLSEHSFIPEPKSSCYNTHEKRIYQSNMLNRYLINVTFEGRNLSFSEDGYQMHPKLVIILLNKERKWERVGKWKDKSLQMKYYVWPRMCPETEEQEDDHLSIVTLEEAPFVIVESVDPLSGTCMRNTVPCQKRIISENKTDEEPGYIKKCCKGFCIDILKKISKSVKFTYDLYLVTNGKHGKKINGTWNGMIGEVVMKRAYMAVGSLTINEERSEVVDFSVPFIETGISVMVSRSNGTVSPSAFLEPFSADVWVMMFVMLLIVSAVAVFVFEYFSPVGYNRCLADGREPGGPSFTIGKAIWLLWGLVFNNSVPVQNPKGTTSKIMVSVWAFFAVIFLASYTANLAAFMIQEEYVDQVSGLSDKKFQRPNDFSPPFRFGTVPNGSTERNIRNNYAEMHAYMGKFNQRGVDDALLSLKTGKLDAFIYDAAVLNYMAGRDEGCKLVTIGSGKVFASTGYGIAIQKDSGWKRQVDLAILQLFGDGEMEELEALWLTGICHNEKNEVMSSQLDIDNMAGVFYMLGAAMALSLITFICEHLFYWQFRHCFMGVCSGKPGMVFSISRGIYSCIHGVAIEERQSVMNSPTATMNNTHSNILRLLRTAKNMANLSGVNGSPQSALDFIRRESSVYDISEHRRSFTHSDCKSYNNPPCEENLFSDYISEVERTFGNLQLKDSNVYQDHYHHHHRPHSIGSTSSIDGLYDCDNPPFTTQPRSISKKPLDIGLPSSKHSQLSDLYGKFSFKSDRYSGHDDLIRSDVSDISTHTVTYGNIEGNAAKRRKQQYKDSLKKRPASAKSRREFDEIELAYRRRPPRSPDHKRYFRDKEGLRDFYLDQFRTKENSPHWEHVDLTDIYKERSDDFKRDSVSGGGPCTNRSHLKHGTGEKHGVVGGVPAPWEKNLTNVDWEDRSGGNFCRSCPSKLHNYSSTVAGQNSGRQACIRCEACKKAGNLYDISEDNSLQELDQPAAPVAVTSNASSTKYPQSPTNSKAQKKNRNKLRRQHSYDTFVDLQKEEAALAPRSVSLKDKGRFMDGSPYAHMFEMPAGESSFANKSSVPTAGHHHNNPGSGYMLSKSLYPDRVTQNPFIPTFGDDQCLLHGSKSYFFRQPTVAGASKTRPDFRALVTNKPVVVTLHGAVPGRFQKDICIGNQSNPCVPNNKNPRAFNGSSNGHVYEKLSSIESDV
Description: cRNA was synthesized from linearized template cDNA for rat glutamate receptor subunits according to manufacturer specifications (Ambion). Quality of synthesized cRNA was assessed by gel electrophoresis, and quantity was estimated by spectroscopy and gel electrophoresis. Stage V and VI oocytes were surgically removed from the ovaries of large, well-fed and healthy Xenopus laevis anesthetized with 3-amino-benzoic acid ethyl ester (3 gm/l) as previously described. Clusters of isolated oocytes were incubated with 292 U/ml Worthington (Freehold, N.J.) type IV collagenase or 1.3 mg/ml collagenase (Life Technologies, Gaithersburg, Md.; 17018-029) for 2 hr in Ca^2+-free solution comprised of (in mM) 115 NaCl, 2.5 KCl, and 10 HEPES, pH 7.5, with slow agitation to remove the follicular cell layer. Oocytes were then washed extensively in the same solution supplemented with 1.8 mM CaCl2 and maintained in Barth's solution comprised of (in mM): 88 NaCl, 1 KCl, 2.4 NaHCO3, 10 HEPES, 0.82 MgSO4, 0.33 Ca(NO3)2, and 0.91 CaCl2 and supplemented with 100 μg/ml gentamycin, 10 μg/ml streptomycin, and 10 μg/ml penicillin. Oocytes were manually defolliculated and injected within 24 hrs of isolation with 3-5 ng of NR1 subunit cRNA and 7-10 ng of NR2 cRNA subunit in a 50 nl volume, or 5-10 ng of AMPA or kainate receptor cRNAs in a 50 nl volume, and incubated in Barth's solution at 18° C. for 1-7 d. Glass injection pipettes had tip sizes ranging from 10-20 microns, and were backfilled with mineral oil.
Two electrode voltage-clamp recordings were made 2-7 days post-injection as previously described. Oocytes were placed in a dual-track plexiglass recording chamber with a single perfusion line that splits in a Y-configuration to perfuse two oocytes. Dual recordings were made at room temperature (23° C.) using two Warner OC725B two-electrode voltage clamp amplifiers, arranged as recommended by the manufacturer. Glass microelectrodes (1-10 Megaohms) were filled with 300 mM KCl (voltage electrode) or 3 M KCl (current electrode). The bath clamps communicated across silver chloride wires placed into each side of the recording chamber, both of which were assumed to be at a reference potential of 0 mV. Oocytes were perfused with a solution comprised of (in mM) 90 NaCl, 1 KCl, 10 HEPES, and 0.5 BaCl2; pH was adjusted by addition of 1-3 M NaOH of HCl. Oocytes were recorded under voltage clamp at −40 mV. Final concentrations for control application of glutamate (50 μM) plus glycine (30 μM) were achieved by adding appropriate volumes from 100 and 30 mM stock solutions, respectively. In addition, 10 μM final EDTA was obtained by adding a 1:1000 dilution of 10 mM EDTA, in order to chelate contaminant divalent ions such as Zn^2+. Concentration-response curves for experimental compounds were obtained by applying in successive fashion maximal glutamate/glycine, followed by glutamate/glycine plus variable concentrations of experimental compounds. Dose response curves consisting of 4 to 8 concentrations were obtained in this manner. The baseline leak current at −40 mV was measured before and after recording, and the full recording linearly corrected for any change in leak current. Oocytes with glutamate-evoked responses smaller than 50 nA were not included in the analysis. The level of inhibition by applied experimental compounds was expressed as a percent of the initial glutamate response, and averaged together across oocytes from a single frog. Each experiment consisted of recordings from 3 to 10 oocytes obtained from a single frog. Results from 3-6 experiments were pooled, and the average percent responses at antagonist concentrations were fitted by the equation,
Percent Response=(100−minimum)/(1+([conc]/IC50)^nH)+minimum […]

[4] = iv, 1 mg/kg, 1 MPK, 0-6 hr i.v.
[5] = iv, 1 mg/kg, 1 MPK, 0-4 hr i.v.
[6] = pH 6.9, Table 19, read-out: IC50 at pH 6.9
[7] = pH 7.6, Table 19, read-out: IC50 at pH 7.6
[8] = pH 6.9, Table 17, read-out: IC50 at pH 6.9
[9] = pH 7.6, Table 17, read-out: IC50 at pH 7.6

O=c1[nH]c2ccc(OC[C@@H](O)CN3CCN(c4ccc(Cl)cc4)CC3)cc2o1 [drawing 814]
Cmax ([1]; 10 mg/kg, 10 MPK, 0-8 hr p.o.): 30.6 ng/mL | Tmax ([1]; 10 mg/kg, 10 MPK, 0-8 hr p.o.): 8 h | bioavailability ([1]; 10 mg/kg, 10 MPK, 0-8 hr p.o.): 6.2% | AUC(0-t) ([1]; 10 mg/kg, 10 MPK, 0-8 hr p.o.): 132 ng·h/mL

Cc1ccc(N2CCN(C[C@H](O)COc3ccc4c(c3)CCC(=O)N4)CC2)cc1 [drawing 790]
Cmax ([2]; iv, 1 mg/kg, 1 MPK i.v.): 464 ng/mL | AUC(0-t) [2, 4]: 347 ng·h/mL

O=C(COc1ccc2[nH]c(=O)[nH]c2c1)N1CCN(c2ccc(Cl)c(Cl)c2)CC1 [drawing 796]
Cmax ([2]; iv, 1 mg/kg, 1 MPK i.v.): 576 ng/mL | AUC(0-t) [2, 4]: 1100 ng·h/mL

O=c1[nH]c2ccc(OC[C@@H](O)CSc3nc4cc(Cl)c(Cl)cc4[nH]3)cc2o1 [drawing 798]
Cmax at 30 min ([2]; iv, 3 mg/kg, 3 MPK i.v.): 398 ng/mL

O=c1[nH]c2ccc(OC[C@@H](O)CN3CCN(c4ccc(F)c(F)c4)CC3)cc2[nH]1 [drawing 787]
Cmax ([2]; iv, 1 mg/kg, 1 MPK i.v.): 241 ng/mL | AUC(0-t) [2, 4]: 452 ng·h/mL

O=c1[nH]c2ccc(OC[C@@H](O)CN3CCN(c4ccc(Cl)cc4)CC3)cc2o1 [drawing 792]
Cmax ([2]; iv, 1 mg/kg, 1 MPK i.v.): 288 ng/mL | AUC(0-t) [2, 5]: 217 ng·h/mL

Cc1ccc(N2CCN(C[C@H](O)COc3ccc4c(c3)CCC(=O)N4)CC2)cc1 [drawing 812]
Cmax ([1]; 5 mg/kg, 5 MPK, 0-6 hr p.o.): 407 ng/mL | Tmax ([1]; 5 mg/kg, 5 MPK, 0-6 hr p.o.): 0.33 h | bioavailability ([1]; 5 mg/kg, 5 MPK, 0-6 hr p.o.): 31.6% | AUC(0-t) ([1]; 5 mg/kg, 5 MPK, 0-6 hr p.o.): 549 ng·h/mL

NC(=O)Nc1ccc(OC[C@@H](O)CN2CCN(c3ccc(Cl)cc3)C2=O)cc1 [drawing 794]
Cmax ([2]; iv, 1 mg/kg, 1 MPK i.v.): 715 ng/mL | AUC(0-t) [2, 4]: 787 ng·h/mL

CS(=O)(=O)Nc1ccc(OC[C@@H](O)CN2CCN(c3ccc(Cl)c(Cl)c3)CC2)cc1
Cmax ([2]; iv, 3 mg/kg, 3MPK i.v.): 1070 ng/mL | AUC(0-t) ([2]; iv, 3 mg/kg, 3MPK, 0-4 hr i.v.): 2350 ng·h/mL

Oc1ccc(OC[C@@H](O)CSc2nc3cc(Cl)c(Cl)cc3[nH]2)cc1 [drawing 799]
Cmax at 30 min ([2]; iv, 3 mg/kg, 3 MPK i.v.): 413 ng/mL

O=C1N(C[C@H](O)COc2ccc(O)cc2)CCN1c1ccc(Cl)cc1 [drawing 795]
Cmax at 30 min ([2]; iv, 3 mg/kg, 3 MPK i.v.): 377 ng/mL

NC(=O)Nc1ccc(OC[C@@H](O)CN2CCN(c3ccc(Cl)cc3)CC2)cc1 [drawing 786]
Cmax ([2]; iv, 1 mg/kg, 1 MPK i.v.): 252 ng/mL | AUC(0-t) [2, 5]: 1030 ng·h/mL

Oc1ccc(OC[C@@H](O)CN2CCN(c3ccc(Cl)cc3)CC2)cc1 [drawing 815]
Cmax ([1]; 10 mg/kg, 10 MPK, 0-8 hr p.o.): 10.2 ng/mL | Tmax ([1]; 10 mg/kg, 10 MPK, 0-8 hr p.o.): 5.3 h | bioavailability ([1]; 10 mg/kg, 10 MPK, 0-8 hr p.o.): 3.3% | AUC(0-t) ([1]; 10 mg/kg, 10 MPK, 0-8 hr p.o.): 56.4 ng·h/mL

Cc1ccc(N2CCN(C[C@H](O)COc3ccc4[nH]c(=O)oc4c3)CC2)cc1 [drawing 793]
Cmax ([2]; iv, 1 mg/kg, 1 MPK i.v.): 568 ng/mL | AUC(0-t) [2, 5]: 364 ng·h/mL

NC(=O)Nc1ccc(OC[C@@H](O)CN2CCN(c3ccc(Cl)cc3)CC2)cc1 [drawing 810]
Cmax ([1]; 10 mg/kg, 10 MPK, 0-8 hr p.o.): 1560 ng/mL | Tmax ([1]; 10 mg/kg, 10 MPK, 0-8 hr p.o.): 2.67 h | bioavailability ([1]; 10 mg/kg, 10 MPK, 0-8 hr p.o.): 146% | AUC(0-t) ([1]; 10 mg/kg, 10 MPK, 0-8 hr p.o.): 8450 ng·h/mL

O=c1[nH]c2ccc(OC[C@@H](O)CN3CCN(c4ccc(F)c(F)c4)CC3)cc2[nH]1 [drawing 811]
Cmax ([1]; 5 mg/kg, 5 MPK, 0-6 hr p.o.): 558 ng/mL | Tmax ([1]; 5 mg/kg, 5 MPK, 0-6 hr p.o.): 0.5 h | bioavailability ([1]; 5 mg/kg, 5 MPK, 0-6 hr p.o.): 82.2% | AUC(0-t) ([1]; 5 mg/kg, 5 MPK, 0-6 hr p.o.): 1860 ng·h/mL

Cc1ccc(N2CCN(C[C@H](O)COc3ccc4[nH]c(=O)oc4c3)CC2)cc1 [drawing 813]
Cmax ([1]; 10 mg/kg, 10 MPK, 0-8 hr p.o.): 57.8 ng/mL | Tmax ([1]; 10 mg/kg, 10 MPK, 0-8 hr p.o.): 6.7 h | bioavailability ([1]; 10 mg/kg, 10 MPK, 0-8 hr p.o.): 7.9% | AUC(0-t) ([1]; 10 mg/kg, 10 MPK, 0-8 hr p.o.): 284 ng·h/mL

Oc1ccc(OC[C@@H](O)CN2CCN(c3ccc(Cl)cc3)CC2)cc1 [drawing 791]
Cmax ([2]; iv, 1 mg/kg, 1 MPK i.v.): 193 ng/mL | AUC(0-t) [2, 5]: 187 ng·h/mL

O=C(COc1ccc2[nH]c(=O)oc2c1)N1CCN(c2ccc(Cl)c(Cl)c2)CC1 [drawing 797]
Cmax at 15 min ([2]; ip, 10 mg/kg, 10 MPK i.p., 15 m): 960 ng/mL

CS(=O)(=O)Nc1ccc(CCCNCCNc2ccc(Cl)c(Cl)c2)cc1
IC50 ([3]; pH 6.9, Table 21, read-out: IC50 at pH 6.9): 2 nM | IC50 ([3]; pH 7.6, Table 21, read-out: IC50 at pH 7.6): 21 nM

Oc1ccc(OC[C@H](O)CN2CCN(c3cccc(F)c3)CC2)cc1
IC50 [3, 6]: 211 nM | IC50 [3, 7]: 598 nM

CS(=O)(=O)Nc1ccc(OC[C@@H](O)CN2CCN(c3ccc(F)c(F)c3)CC2)cc1 [drawing 789]
Cmax at 30 min ([2]; ip, 60 mg/kg, 60 MPK): 13400 ng/mL | Cmax at 2 hr ([2]; ip, 60 mg/kg, 60 MPK, 2 hr): 13100 ng/mL

Cc1cccc(N2CCN(C[C@@H](O)COc3ccc(O)cc3)CC2)c1
IC50 [3, 6]: 341 nM | IC50 [3, 7]: 1740 nM

CS(=O)(=O)Nc1ccc(OCC(O)CNCCNc2ccc(F)c(F)c2)cc1 (stereo not shown)
IC50 [3, 8]: 108 nM | IC50 [3, 9]: 199 nM

NC(=O)Nc1ccc(OC[C@H](O)CN2CCN(c3ccc(Cl)cc3)CC2)cc1
IC50 ([3]; pH 6.9, Table 20, read-out: IC50 at pH 6.9): 19 nM | IC50 ([3]; pH 7.6, Table 20, read-out: IC50 at pH 7.6): 60 nM

Oc1ccc(OCC(O)CN2CCN(c3ccc(Br)cc3)CC2)cc1 (stereo not shown)
IC50 [3, 6]: 73 nM | IC50 [3, 7]: 204 nM

CCCCN(CCc1ccc(Cl)c(Cl)c1)CC(O)COc1ccc(O)cc1 (stereo not shown)
IC50 [3, 6]: 585 nM | IC50 [3, 7]: 6500 nM

CS(=O)(=O)Nc1ccc(OCC(O)CN2CCN(c3ccc(O)cc3)CC2)cc1 (stereo not shown)
IC50 [3, 8]: 2400 nM | IC50 [3, 9]: 28000 nM

CCCCN(C/C=C/c1ccc(Cl)c(Cl)c1)CC(O)COc1ccc(NS(C)(=O)=O)cc1 (stereo not shown)
IC50 [3, 8]: 163 nM | IC50 [3, 9]: 2580 nM

CS(=O)(=O)Nc1ccc(OCC(O)CNCCNc2ccc(Cl)c(Cl)c2)cc1 (stereo not shown)
IC50 [3, 8]: 12 nM | IC50 [3, 9]: 62 nM

Oc1ccc(OC[C@H](O)CN2CCN(c3ccc(F)cc3)CC2)cc1
IC50 [3, 6]: 87 nM | IC50 [3, 7]: 529 nM
